# Measurements: patent US10294228B2, “Breathing control modulating compounds, and methods of making and using same” (NEURAD LTD., priority 2015, dated 2019)
# Where a name gives a salt, the structure may show the parent alone.
# Key:
# [1] = tested on: anesthetized rats; assay: Anesthetized rat spirometry screening assay (ventilatory activity, minute volume); type: in vivo; settings: 0.3 mg/kg IV bolus, increase in minute volume (VE), read-out: VE % Inc @ 0.3 mg/kg IV
# Outline: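 Urethane-anesthetized (1.5 g/kg i.v.) rats with tracheal cannula to pneumotachometer; minute volume derived from respiratory rate × tidal volume. Compounds given as i.v. bolus at 0.1 and/or 0.3 and/or 3 mg/kg, monitored at least 6 min; data as 30 s averages.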
# [2] = tested on: anesthetized supine rats with spontaneous obstructive apneas; assay: Spontaneous obstructive apnea model; type: in vivo, rat
# Description: (§1) Two rodent models of obstructive apnea were used: one that modeled spontaneous obstructions (spontaneous obstructive apnea model) which become progressively worse over time, and another (evoked obstructive apnea model) where the investigator retained control over the variables that define OSA severity, such as apnea frequency (f OA) and apnea duration (OA t).
# The majority of studies were conducted using the spontaneous obstructive apnea model, where rats were positioned in dorsal recumbency (supine), and permitted to breathe spontaneously on room air. Air flow was measured continuously by whole-body plethysmography. […] OA were defined as periods of no air flow for more than 2 respiratory cycles accompanied by efforts to breathe (e.g., increased transthoracic esophageal inspiratory pressure). After neck flexion, eupnea became increasingly interrupted by clusters of upper airway obstructions (f OA 30±3 hr^−1 (mean±SEM), range: 13 to 94 hr^−1; OA t 11±3 s, range: 6 to 15 s). OA severity was further quantified by the peak change in hemoglobin oxygen saturation during an obstruction (ΔSpO2: −20±1%, range: −11 to −31%). Clustered OAs were often separated by long periods of eupneic breathing, which presumably returned when activation of a relevant afferent/effector reflex (e.g., chemoreceptor driven increased motor drive to the genioglossus muscle) reached a threshold necessary to reestablish a patent upper airway.
# (§2) All animal experiments were performed according to protocols approved by the Institutional Animal Care and Use Committee (IACUC) at Galleon Pharmaceuticals, Inc. All experimental procedures were performed under general anesthesia. All experiments were non-survival procedures and animals were euthanized at the conclusion of the experiment prior to the animal recovering from anesthesia. Two rodent models of obstructive apnea were used, one that modeled spontaneous obstructions that become progressively worse over time (Spontaneous Obstructive Apnea Model), and another where the investigator retained control over the parameters that defined OSA severity, such as f OA, and OA t, and by controlling these directly also controlling of the magnitude of oxy-hemoglobin desaturation (Evoked Obstructive Apnea Model).
# Rats were initially anesthetized in a rodent anesthesia induction chamber using 3% (dial setting) isoflurane in 97% oxygen (O2) for surgical instrumentation. When rats had become recumbent they were removed from the chamber and placed in dorsal recumbency (supine) on a heating pad. Anesthesia was maintained with 2% isoflurane in 98% oxygen and rats were permitted to breathe spontaneously on room air. After instrumentation, isoflurane was slowly discontinued and urethane (1.5 to 1.8 g/kg, IV) administered to maintain anesthesia without interruption. Supplemental oxygen was discontinued at this time.
# The femoral artery was cannulated to permit continuous recording of arterial blood pressure and intermittent sampling of blood for pH and blood gas analyses, and single time point quantification of test article plasma concentrations. The femoral vein was cannulated to permit test compound administration and fluid support. The arterial cannula was connected to a heparinized saline filled pressure transducer. The arterial pressure waveforms were sampled at 2K/second and band-pass filtered between 0-1000 Hz. […]
# [3] = tested on: rats with evoked obstructions; assay: Evoked obstructive apnea model; type: in vivo, rat
# Description: as §1, §2
structure (smiles),measurement,setting,value
"CCCNc1nc(NC)nc2c(NCC(C)(C)O)nc(NC)nc12 [Compound 31a, 1-(2,6-Bis-methylamino-8-propylamino-pyrimido[5,4-d]pyrimidin-4-ylamino)-2-methyl-propan-2-ol Hydrochloride]",change in vivo at 0.3 mg/kg,[1],69%
same,SpO2 desaturations,"[2]; FIG. 18, model not named in the legend",reduction
same,frequency of obstructive apneas (OA),"[2]; FIG. 19, model not named in the legend",reduction
same,arterial oxygen content deficit,"[2]; FIG. 20, model not named in the legend",reduction
same,upper airway (total genioglossus EMG amplitude) response to spontaneous obstructive apneas,[2]; FIG. 22,increase
same,upper airway response (genioglossus activity) to spontaneous obstructive apneas,"[2]; IV infusion, FIG. 23",dose-dependently increases
same,"airway (genioglossus, or GG) responses to evoked obstructions","[3]; rats, IV infusion MD 0.008 mg/kg/min 15 min then 0.002 mg/kg/min 45 min, HD 0.024 then 0.006 mg/kg/min, FIG. 21A",increases
same,diaphragm (DIA) responses to evoked obstructions,"[3]; same rats and infusions as FIG. 21A, FIG. 21B",insignificant increases
